Two molecules from patent US10662164B2, “Non-beta lactam antibiotics” (University of Notre Dame du Lac, priority 2014, dated 2020) can be followed below.

As usually defined, the Vd is a proportionality between amount in the body and measured concentration, not a real space. Higher therefore signals extensive tissue distribution. Usually Cmax stands for the highest concentration seen after dosing. A word on the Tmax: it is the time at which the peak concentration occurs.

Series [1] in a line: Full PK study. The class given is in vivo, mouse. As to conditions: compound 1, oral; dose not given.
The nature of series [2]: Full PK study. It is filed as in vivo, mouse. The method, then: A full PK study was conducted with indole 75b after iv and oral (po) administration. This compound had the lowest in vitro toxicity and the highest efficacy in the mouse peritonitis infection model.
Female ICR mice (6-8 weeks old, ˜20-g body weight) were used for the PK and peritonitis studies. Animals were purchased from Harlan Laboratories, Inc. (Indianapolis, Ind., USA) and given Teklad 2019 Extruded Rodent Diet and water ad libitum. Mice were maintained in polycarbonate shoebox cages with ¼″ corncob (The Andersons Inc., Maumee, Ohio) and Alpha-dri (Sheperd Specialty Papers, Inc., Richland, Mich.) bedding under 12-h light/12-h dark cycle at 72±2° F.
Antibiotic 75b was dissolved in 10% DMSO/25% Tween-80/65% water at a concentration of 5 mg/mL. Mice (n=3 per time point per route of administration) were administered 100 μL of 75b (equivalent to 20 mg/kg) iv. A separate group of mice was given 100 μL of 75b (equivalent to 20 mg/kg) orally (po). Terminal blood was collected in heparin by cardiac puncture at 2, 5, 10, 20, and 40 min, and at 1, 2, 3, 4, 8, and 24 h after iv administration and at 0.5, 1, 2, 3, 4, 6, 9, 24, and 36 h after po administration. Blood was centrifuged at 1200 g for 10 min to obtain plasma. Plasma samples were stored at −80° C. until analysis.
Plasma ([…], aliquot) was mixed with 100 μL of acetonitrile containing internal standard (final concentration 8 μg/mL). After centrifugation at 10000 g for 10 min, the supernatant was analyzed by ultraperformance liquid chromatography (UPLC) with UV detection at 285 nm. A Waters Acquity UPLC System (Waters Corporation, Milford, Mass., USA), consisting of a binary pump, an autosampler, a column heater, and a photodiode array detector was used. An Acquity UPLC C18 1.7 μm, 2.1 mm i.d.×50 mm column was used. Elution was at 0.5 mL/min with 70% A/30% B for 2 min, followed by a 10-min linear gradient to 10% A/90% B, then 70% A/30% B for 2 min, where A=0.1% formic acid/water and B=0.1% formic acid/acetonitrile. Monitoring was by UV detection at 285 nm. Calibration curves for each compound were prepared in control plasma containing internal standard. The concentrations in the PK samples were obtained using peak area ratio to the internal standard and the calibration curve regression analysis parameters. The methods were linear from 0.01 to 100 μg/mL; coefficients of determination R^2 range from 0.98 to 0.99.
The area under the curve (AUC), clearance (CL), volume of distribution (Vd), and terminal half-life were calculated using Phoenix WinNonlin 6.3 (Certara LP, St Louis, Mo., USA) noncompartmental analysis using uniform weighing. Half-lives were estimated from the linear portion of the initial or terminal phase of the concentration-time data by linear regression, where the slope of the line was the rate constant k and t1/2=ln 2/k.

Series [3] has as its system S. aureus ATCC 29213. Nature of the series: Minimal-bactericidal concentration (MBC) determination. It is filed as cell-based, Staphylococcus aureus. As to conditions: MSSA strain. On the procedure:
(§1) The MBC of compound 75b was determined using S. aureus ATCC 29213, S. aureus […], and E. faecium NCTC 7171.
(§2) The MBC of indolyl antibiotic 75b was determined by incubation of 1.5×10^5 cells of S. aureus ATCC29213, S. aureus ATCC 27660, and E. faecium NCTC7171 at MIC, 2×MIC, and 4×MIC. Aliquots of 10 μL (corresponding to 1.5×10^4 cells) were plated on agar plates, incubated for 48 h, and colonies were counted in the presence and absence of […].

For series [4], the system named is S. aureus ATCC 277660. Described as above. It is filed as cell-based, Staphylococcus aureus. On the procedure:
as §1, §2

The molecule `Oc1ccc(-c2nc(-c3ccc(Oc4ccc(C(F)(F)F)cc4)cc3)no2)cc1` [Compound 1] came in with a t1/2abs in series [1] of 3.3 h.
Take `FC(F)(F)c1ccc(Oc2ccc(-c3noc(-c4ccc5[nH]ccc5c4)n3)cc2)cc1` [Compound 75b, 5-(1H-Indol-5-yl)-3-(4-(4-(trifluoromethyl)phenoxy)phenyl)-1,2,4-oxadiazole]: in series [2] (20 mg/kg iv, mice), the AUC0-24 h was determined as 3140 µg·min/mL, the “AUC0-∞” value came to 3520 µg·min/mL, the CL is given as 5.68 mL/min/kg and the Vd was 4.73 L/kg. Also, in series [2] (20 mg/kg iv, mice), the t1/2α entry was “t1/2α = 0.54 min” and the “t1/2β (terminal half-life)” value is on record as 9.6 h. The “F (oral bioavailability)” value in series [2] (20 mg/kg po vs iv, mice) was 97%. Further, in series [2] (20 mg/kg po, mice), the AUC0-24 h is 3060 µg·min/mL, the “AUC0-∞” value was 4060 µg·min/mL, the Cmax was 2340 ng/mL and the Tmax is recorded as 6 h. In addition, in series [2] (20 mg/kg po, mice), the t1/2dist entry was “t1/2dist = 15.9 h” and the “t1/2elim (terminal half-life)” value is 18.6 h. In series [2] (75b vs compound 1), the “clearance, fold lower than 1” value was determined as 3 fold and the “volume of distribution, fold higher than 1” value was determined as 13 fold. Moreover, the “MBC relative to MIC” value in series [3] is recorded as “the same as the MIC value”. Moreover, the “MBC, fold above the MIC” value in series [4] came out at 2 fold.
